For 79 compounds, viability results are on record in PMC12040169 (PLOS Biology, 2025).

The nature of one data set: in vitro. Conditions: human, hela cells, % viability.
The term viability denotes a read-out of living cells in per cent, often relative to untreated cells. Consider `O=C(c1ccccc1O)N1CCN(Cc2cc(=O)n3ccsc3n2)CC1` [CBK306096], for which the viability at 28.5 h, 10 µM is 90.2%.

As to `CCNC(=O)N1CC(C)N(CCCC(c2ccc(F)cc2)c2ccc(F)cc2)CC1C` (stereo not shown) [CBK024912C], the viability at 28.5 h, 10 µM was 105%.

Regarding `CC(=O)NCc1cccc(-c2cc(C(=O)NCC3CN(Cc4ccccc4)CCO3)cnc2-c2ccc(Cl)cc2)c1` (stereo not shown) [CBK164416T], the viability at 28.5 h, 10 µM is 88.5%.

Regarding `O=S(=O)(c1ccc(C(F)(F)F)cc1Cl)N1CCCN(Cc2ccc(F)cc2F)CC1` [CBK062946], the viability at 28.5 h, 10 µM is 91.8%.

As to `CCC(=O)NCCCn1c(-c2cccnc2C)cc2cccnc21` [CBK282646], the viability at 28.5 h, 10 µM is 90.4%.

For the compound `CCCc1nnc(SC(C)C(=O)N2CCCc3ccccc32)[nH]1` (stereo not shown) [CBK306480], the viability at 28.5 h, 10 µM is 90%.

For `O=C1CNC(=S)N1c1cccc(C(F)(F)F)c1` [CBK288398], the viability at 28.5 h, 10 µM was 104%.

Take `Cc1ccc(CN[C@@H]2CCC(=O)N[C@H]2c2cc(F)cc(F)c2)o1` [CBK283128]: the viability at 28.5 h, 10 µM worked out at 97.9%.

Consider `COCC(=O)N1CC[C@@H]2[C@H]1C(=O)N(c1ccc(OC)cc1)C(=O)N2Cc1ccccc1` [CBK289280], for which the viability at 28.5 h, 10 µM worked out at 92.9%.

Regarding `Cc1cnn(CC(=O)N2CCCCC2CN2CCCCCC2)c1` (stereo not shown) [CBK282103], the viability at 28.5 h, 10 µM worked out at 98.9%.

As for `CC(C)Oc1ccc(C(=O)N2CCC(COc3ccc(-c4ccc(S(C)(=O)=O)cc4)cn3)CC2)nc1` [CBK161989], the viability at 28.5 h, 10 µM worked out at 86.8%.

Consider `CC1=NN(c2ccc(Cl)c(Cl)c2)C(=O)C1` [CBK067761], for which the viability at 28.5 h, 10 µM worked out at 100%.

As for `O=C(Nc1ccc(F)c(F)c1)c1cnc2sccn2c1=O` [CBK287450], the viability at 28.5 h, 10 µM stood at 104%.

Turning to `Cn1cc(C(=O)N2CCOCC2c2nc(-c3cccs3)no2)cn1` (stereo not shown) [CBK305422], the viability at 28.5 h, 10 µM came to 113%.

Take `CCCn1ncc(CN[C@@H]2CCC[C@H]2Cc2cc(C)no2)c1C` [CBK282948]: the viability at 28.5 h, 10 µM is 88.7%.

With `N=C(Nc1nc(CSc2nnc(N)s2)cc(=O)[nH]1)Nc1ccc(Cl)cc1Cl` [CBK268890], the viability at 28.5 h, 10 µM came to 85.5%.

`CN1CCC(=NNC(=O)C(=O)NCc2ccco2)CC1` [CBK262341]: the viability at 28.5 h, 10 µM worked out at 84.6%.

With `Cc1cc(F)ccc1S(=O)(=O)N(C(=O)c1ccncc1)c1ccc(OC(=O)c2ccncc2)cc1` [CBK266909], the viability at 28.5 h, 10 µM worked out at 91.1%.

As for `O=C(O)CC1C(=O)NCCN1CC(c1ccccc1)c1ccccc1` (stereo not shown) [CBK286539], the viability at 28.5 h, 10 µM came to 77.5%.

Turning to `COc1ncc(-c2cc(N3CCN(CCN(C)C)CC3)n3nccc3n2)c(OC)n1` [CBK037033], the viability at 28.5 h, 10 µM was 87.7%.

With `O=C(NCC1COc2ccccc2O1)c1ccc(-c2ccc(OC(F)(F)F)cc2)nc1` (stereo not shown) [CBK156214], the viability at 28.5 h, 10 µM amounted to 88.3%.

In the case of `O=C(Nc1ccc([C@@H](O)[C@H]2COCC(=O)N2Cc2ccc(F)cc2)cc1)c1cccnc1` [CBK289062], the viability at 28.5 h, 10 µM turned out to be 93.3%.

Take `O=[N+]([O-])c1cccc(-c2cc(Nc3ccc4[nH]ccc4c3)ncn2)c1` [CBK090860]: the viability at 28.5 h, 10 µM is 108%.

In the case of `CN(C)S(=O)(=O)c1ccc2[nH]cc(CCN)c2c1` [CBK268522C], the viability at 28.5 h, 10 µM was found to be 99.7%.

Turning to `O=C(NCc1ccc2c(c1)OCO2)C1(c2ccccc2)CCCC1` [CBK149530], the viability at 28.5 h, 10 µM amounted to 89.8%.

On to `O=C(O)CC(CNC(=O)Cc1c[nH]c2ccccc12)c1ccc(Cl)cc1` (stereo not shown) [CBK286598], for which the viability at 28.5 h, 10 µM was 91.7%.

On to `C[C@@H]1CN(C(=O)OCc2nccn2C)C[C@H](C)O1` [CBK200142], for which the viability at 28.5 h, 10 µM came to 103%.

As to `CCCc1n[nH]c(=S)n1CC(=O)NCc1ccc(N2CC(C)OC(C)C2)nc1` (stereo not shown) [CBK297741], the viability at 28.5 h, 10 µM was found to be 90.4%.

For `CCC(=O)N1CCC2(C/C=C/CC(=O)Nc3cccc(n3)C3CN(CCO3)C(=O)CN(C)C2=O)CC1` (stereo not shown) [CBK292004], the viability at 28.5 h, 10 µM stood at 105%.

Consider `COc1ccc(CN2C(=O)CC3(C2=O)C(=O)N(Cc2ccccc2)c2ccc(F)cc23)cc1OC` (stereo not shown) [CBK075174], for which the viability at 28.5 h, 10 µM turned out to be 108%.

Take `CSc1nc(C(=O)N2CCCCC2c2cccc(F)c2)cs1` (stereo not shown) [CBK306732]: the viability at 28.5 h, 10 µM was found to be 108%.

With `O=C(CNC(=O)c1ccc(OC(F)F)cc1)NCCCn1cccn1` [CBK297789], the viability at 28.5 h, 10 µM amounted to 106%.

Regarding `CC(C)(C)CC(=O)N1C[C@@H]2C[C@H](C1)c1ccc(NC(=O)Nc3ccccc3)c(=O)n1C2` [CBK289176], the viability at 28.5 h, 10 µM is 85.8%.

On to `O=C(CCCC1CCNCC1)Nc1nnc(C2CC2)s1` [CBK169224], for which the viability at 28.5 h, 10 µM stood at 97.1%.

As to `O=C(Oc1ccc(N(C(=O)c2ccncc2)S(=O)(=O)c2cccc3cccnc23)cc1)c1ccncc1` [CBK267123], the viability at 28.5 h, 10 µM amounted to 89.5%.

`COCc1nc(CN2CCNC(=O)C2c2ccccc2C(F)(F)F)no1` (stereo not shown) [CBK304157]: the viability at 28.5 h, 10 µM was found to be 87.2%.

Consider `CC1(C)CN(Cc2cccc(-c3ccccn3)c2)CCS1(=O)=O` [CBK304284], for which the viability at 28.5 h, 10 µM amounted to 99.8%.

`CS(=O)(=O)N1CCN(c2ccccc2NC(=O)COc2ccccc2Cl)CC1` [CBK269250]: the viability at 28.5 h, 10 µM was 103%.

For `Cc1n[nH]c(C)c1CC(=O)N1CCCC(c2cc3ccccc3cn2)C1` (stereo not shown) [CBK285018], the viability at 28.5 h, 10 µM stood at 103%.

Consider `CC(C)c1ccc(-c2csc(Nc3cccc(C(=O)O)c3)n2)cc1` [CBK299880], for which the viability at 28.5 h, 10 µM is 104%.

For `Clc1ccccc1-c1nccnc1OCCOc1ccccc1` [CBK107011], the viability at 28.5 h, 10 µM came out at 95.9%.

As to `Cc1ccc(C(=O)CCC(=O)N2CCCC2c2ccc(F)cc2)cc1` (stereo not shown) [CBK297885], the viability at 28.5 h, 10 µM was determined as 96.2%.

Consider `O=[N+]([O-])c1ccccc1S(=O)(=O)NCCSCc1ccc(Cl)c(Cl)c1` [CBK058810], for which the viability at 28.5 h, 10 µM was 104%.

`CCOC(=O)c1ccccc1NC(=O)N[C@@H]1CC[C@@]2(c3ccc(OC)c(OC)c3)CCN(C)[C@H]2C1` [CBK047494T]: the viability at 28.5 h, 10 µM was 94.9%.

As for `COc1ccc(-c2nnc(SCC(=O)c3ccc(F)cc3)n2C2CCCCC2C)cc1` (stereo not shown) [CBK297494], the viability at 28.5 h, 10 µM was 89.8%.

Consider `COc1cccc(OC)c1OCCCN1CCCCC1` [CBK262719], for which the viability at 28.5 h, 10 µM is 97.7%.

Consider `Nc1nonc1-c1cccnc1` [CBK006120], for which the viability at 28.5 h, 10 µM is 105%.

Take `COc1ccccc1-c1ccc(CNC(Cc2ccsc2)c2nccs2)cc1` (stereo not shown) [CBK286315]: the viability at 28.5 h, 10 µM is 86.7%.

Consider `Cc1cc(COc2ncccc2C(F)(F)F)no1` [CBK115783], for which the viability at 28.5 h, 10 µM was determined as 101%.

`COc1cccc(CCN2CCC(C(=O)NC(c3ccc(F)cc3)c3nc(OC)cc(OC)n3)CC2)c1` (stereo not shown) [CBK148089]: the viability at 28.5 h, 10 µM came to 92.2%.

Regarding `CC(NC(=O)n1ccc2c(N3CCNCC3)cccc21)c1ccccc1` (stereo not shown) [CBK003729C], the viability at 28.5 h, 10 µM stood at 90.7%.

Consider `COCCn1c(SCc2ccc([N+](=O)[O-])cc2)nnc1-c1ccccc1` [CBK265937], for which the viability at 28.5 h, 10 µM worked out at 89.6%.

In the case of `CC(C)Nc1nccnc1SCCN(C)C` [CBK105290], the viability at 28.5 h, 10 µM is 92.1%.

For `COC(=O)c1sc(N2CCOCC2)c(C#N)c1N` [CBK006430], the viability at 28.5 h, 10 µM is 101%.

On to `Cc1ccc2nsnc2c1NC(=O)COc1ccc([N+](=O)[O-])cc1` [CBK033705], for which the viability at 28.5 h, 10 µM was 95.6%.

For `COc1ccc(C2CCN(CC(=O)NC(C)(C)C)CC2)cc1` [CBK283558], the viability at 28.5 h, 10 µM came out at 92.7%.

In the case of `Cc1ccc(SCS(=O)(=O)c2ccc(C)cc2)cc1` [CBK026853], the viability at 28.5 h, 10 µM was 97.8%.

On to `O=C(O)c1cc(NCc2cccc(F)c2F)n[nH]1` [CBK287006], for which the viability at 28.5 h, 10 µM turned out to be 93.4%.

With `COc1nc(N)nc2c1ncn2C1CC(O)C(CO)O1` (stereo not shown) [CBK201314], the viability at 28.5 h, 10 µM was 89.4%.

`Cn1cc(C(=O)NC2CCN(C(=O)c3cccc(C#N)c3)CC2)cn1` [CBK305673]: the viability at 28.5 h, 10 µM stood at 110%.

For `Cc1cc(S(=O)(=O)N2CCN(c3ccc(Cl)cc3)CC2)c(C)cc1Cl` [CBK044965], the viability at 28.5 h, 10 µM is 114%.

`Clc1ccc(COc2nccnc2OCC2CCCO2)cc1Cl` (stereo not shown) [CBK161587]: the viability at 28.5 h, 10 µM came to 105%.

As for `Cn1c(SCc2c(Cl)cccc2[N+](=O)[O-])nnc1-c1ccc(NC(=O)c2ccccc2Cl)cc1` [CBK264983], the viability at 28.5 h, 10 µM amounted to 81.1%.

For the compound `CN(C)CCN(Cc1ccncc1)Cc1cc(F)ccc1F` [CBK283095], the viability at 28.5 h, 10 µM is 88%.

For `Cc1cc(NC(=O)c2cncnc2)c2ccccc2n1` [CBK122734], the viability at 28.5 h, 10 µM came out at 103%.

Regarding `COC(=O)[C@@H]1Cc2ncn(Cc3ccc(OC)cc3)c2CN1C(=O)c1ccc(C#N)cc1` [CBK288982], the viability at 28.5 h, 10 µM is 95.4%.

Regarding `Cc1ccc(Cl)cc1N(Cc1ccc(C(=O)N2CCC(C)CC2)cc1)S(=O)(=O)c1ccccc1` [CBK033646], the viability at 28.5 h, 10 µM was found to be 107%.

Take `O=C(COc1ccc(F)cc1)Nc1ccc2[nH]ccc2c1` [CBK159689]: the viability at 28.5 h, 10 µM worked out at 98.6%.

On to `Cn1c(=O)n(C)c2cc(-c3nc4ccccc4c(=O)[nH]3)ccc21` [CBK287887], for which the viability at 28.5 h, 10 µM was found to be 98.5%.

With `Cc1oc(NC(=O)CN2CCN(c3ccccc3Cl)CC2)c(C#N)c1C` [CBK305908], the viability at 28.5 h, 10 µM came out at 84.7%.

Turning to `O=C(O)CSC1=CC(=O)N(c2ccc(Br)cc2)C1=O` [CBK287263], the viability at 28.5 h, 10 µM came out at 81.5%.

As to `CCOC(=O)C1(Cc2cc(-c3ccccc3F)no2)CCCNC1` (stereo not shown) [CBK284577], the viability at 28.5 h, 10 µM worked out at 85.2%.

Turning to `CN(CCOC(=O)c1cccs1)C(C)(C)C` [CBK027559C], the viability at 28.5 h, 10 µM is 88.6%.

As for `O=C(O)/C=C/C(=O)Nc1ccccc1C(=O)O` [CBK261461], the viability at 28.5 h, 10 µM came to 101%.

For the compound `Cc1n[nH]c(C)c1CC(=O)NC(Cc1cccs1)c1nccs1` (stereo not shown) [CBK285093], the viability at 28.5 h, 10 µM was found to be 92.1%.

For `CC(NC(=O)N1CCCN(Cc2cccs2)CC1)c1nncn1C` (stereo not shown) [CBK305322], the viability at 28.5 h, 10 µM stood at 80.3%.

Consider `O=S(=O)(NCc1ccc(C(F)(F)F)c(F)c1)c1cccc2nsnc12` [CBK062113], for which the viability at 28.5 h, 10 µM was found to be 94.3%.

For `CN1CCN(CCCCOc2ccc(Cc3ccccc3)cc2)CC1` [CBK269692C], the viability at 28.5 h, 10 µM was 91.6%.

Still in this data set, the particulars now being: human, hela cells, % viability, bulk resorufin, single well.
On to `CCOC(=O)C1(c2ccccc2)CCN(C(=O)C2COc3ccccc3O2)CC1` (stereo not shown) [CBK132178], for which the viability at 28.5 h, 10 µM is 93.3%.
